Consider 9 compounds from PubChem BioAssay (NCI).

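Compound exposure: 48 hours, 5 concentrations, 96-well plates. At the GI50, growth is halved. TGI: total growth inhibition.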

Test systems include KM12 colon; SF-539 CNS; T-47D breast; UACC-257 melanoma; MALME-3M melanoma; HCT-116 colon; UACC-62 melanoma; SR leukemia; HOP-92 NSCLC; HCT-15 colon.
What all share (assay): NCI-60 cell line screen, 48 h

`O=C(NCc1ccc(S(=O)(=O)c2cc(F)cc(F)c2)cc1)c1ccc2nccn2c1`: the GI50 was 328 nM in the test on KM12 colon; less than 0.01 µM in the test on SF-539 CNS; 11.7 µM in the test with T-47D breast; greater than 59.1 µM with UACC-257 melanoma; greater than 41.6 µM with MALME-3M melanoma; less than 0.01 µM in the test on HCT-116 colon. In addition, the GI50 with UACC-62 melanoma is greater than 51 µM; with HOP-92 NSCLC it was 22500 nM; with HCT-15 colon it was 0.0472 µM. For the same compound, the TGI in the test with KM12 colon is greater than 100 µM; in the test on SF-539 CNS, greater than 42.9 µM; with T-47D breast, greater than 100 µM; in the test with UACC-257 melanoma, greater than 100 µM; in the test with MALME-3M melanoma it was greater than 65 µM; in the test with HCT-116 colon, greater than 100 µM. Further, the TGI in the test on UACC-62 melanoma, in the test on SR leukemia, in the test on HOP-92 NSCLC and with HCT-15 colon was greater than 100 µM in each case.
As for `S=C1SC2=Nc3ccccc3CN2C2=NCCN12`, the GI50 in the test on KM12 colon is greater than 100000 nM; with SF-539 CNS, greater than 100 µM; in the test on T-47D breast, 78.5 µM; in the test on UACC-257 melanoma it was greater than 100 µM; with MALME-3M melanoma it was 49.6 µM; in the test with HCT-116 colon, 52.8 µM. Also, the GI50 in the test with UACC-62 melanoma is 72.5 µM; in the test with SR leukemia, 18.7 µM; with HOP-92 NSCLC it was greater than 100000 nM; in the test with HCT-15 colon, 33 µM. Also, the TGI in the test on KM12 colon, with SF-539 CNS, with T-47D breast, in the test with UACC-257 melanoma, with MALME-3M melanoma and in the test with HCT-116 colon was greater than 100 µM each time. The TGI in the test on UACC-62 melanoma was greater than 100 µM; in the test on SR leukemia, 55.7 µM; in the test on HOP-92 NSCLC, greater than 100 µM; in the test with HCT-15 colon, greater than 100 µM.
As for `CCN(CC)CCNC(=O)c1ccc(C)c(OCc2ccccc2)c1[N+](=O)[O-]`, the TGI was greater than 81.1 µM with KM12 colon; 70.9 µM with SF-539 CNS; 58 µM with T-47D breast; 36.3 µM with UACC-257 melanoma; 31.2 µM in the test on MALME-3M melanoma; 47.8 µM in the test on HCT-116 colon. The TGI in the test with UACC-62 melanoma came to 39.6 µM; with SR leukemia, 69.9 µM; in the test on HOP-92 NSCLC, 83.2 µM; in the test with HCT-15 colon, 47.4 µM.
For `COc1ccc2c(Oc3ccc(NC(=O)c4c(C)n(CC(C)(C)O)n(-c5ccccc5)c4=O)nc3)ccnc2c1`, the GI50 was 2230 nM in the test on KM12 colon; 5.85 µM in the test on SF-539 CNS; 25.4 µM in the test on T-47D breast; 16.6 µM in the test with UACC-257 melanoma; 9.06 µM in the test with MALME-3M melanoma; 8.55 µM with HCT-116 colon. The GI50 was 6.14 µM with UACC-62 melanoma, 8.57 µM in the test with SR leukemia, 1790 nM with HOP-92 NSCLC and 6.75 µM with HCT-15 colon. The TGI in the test on KM12 colon was greater than 100 µM; in the test on SF-539 CNS it was 50.9 µM; in the test on T-47D breast, greater than 100 µM; in the test with UACC-257 melanoma, greater than 100 µM; in the test on MALME-3M melanoma it was 51.1 µM; with HCT-116 colon it was greater than 64.3 µM. For the same compound, the TGI in the test on UACC-62 melanoma is 42.2 µM; with SR leukemia, greater than 100 µM; in the test with HOP-92 NSCLC it was 16.7 µM; in the test on HCT-15 colon, greater than 100 µM.
Take `NC(=S)N/N=C/c1cc(-c2cccc(N)c2)ccn1`: the GI50 was 1110 nM with KM12 colon; 0.675 µM in the test with SF-539 CNS; 1.34 µM in the test on T-47D breast; 2.15 µM with UACC-257 melanoma; 1.31 µM in the test with MALME-3M melanoma; 1.99 µM in the test on HCT-116 colon. Moreover, the GI50 with UACC-62 melanoma is 1.38 µM; in the test on SR leukemia, 0.346 µM; with HOP-92 NSCLC, 314 nM; in the test on HCT-15 colon, 2.71 µM. Also, the TGI is greater than 41.2 µM in the test on KM12 colon; 6.17 µM in the test with SF-539 CNS; greater than 100 µM in the test on T-47D breast; greater than 28.6 µM in the test on UACC-257 melanoma; 24 µM in the test on MALME-3M melanoma; 27.3 µM in the test on HCT-116 colon. In addition, the TGI in the test with UACC-62 melanoma was greater than 24.5 µM; with SR leukemia, greater than 27.9 µM; in the test with HOP-92 NSCLC, 40 µM; with HCT-15 colon, greater than 100 µM.
Regarding `COC(=O)CCC1=C(CC(=O)OC)C(C)=N/C1=C\c1[nH]c(-c2ccc[nH]2)cc1OC`, the GI50 in the test with KM12 colon was 2670 nM; with SF-539 CNS, 5.63 µM; with T-47D breast it was 3.55 µM; in the test with UACC-257 melanoma, 4.47 µM; in the test on MALME-3M melanoma, 6.8 µM; in the test on HCT-116 colon, 1.36 µM. Moreover, the GI50 in the test on UACC-62 melanoma was 3.09 µM; in the test with SR leukemia, 1.71 µM; in the test on HOP-92 NSCLC, 1830 nM; in the test with HCT-15 colon, 2.04 µM. Besides, the TGI stood at 15 µM with KM12 colon; 20.6 µM with SF-539 CNS; 16.3 µM in the test on T-47D breast; 17 µM in the test with UACC-257 melanoma; 23.3 µM in the test with MALME-3M melanoma; 11.5 µM with HCT-116 colon. Besides, the TGI with UACC-62 melanoma amounted to 11.5 µM; with SR leukemia it was 7.7 µM; in the test with HOP-92 NSCLC, 5.9 µM; in the test with HCT-15 colon it was 15.2 µM.
As to `O=C(OCC(OC(=O)c1ccccc1)C(OC(=O)c1ccccc1)C(OC(=O)c1ccccc1)c1cnn(-c2ccccc2)n1)c1ccccc1` (centres undefined), the TGI with KM12 colon, in the test on SF-539 CNS, in the test with T-47D breast, in the test on UACC-257 melanoma, with MALME-3M melanoma and with HCT-116 colon was greater than 100 µM each time. Moreover, the TGI in the test on UACC-62 melanoma, with SR leukemia, in the test with HOP-92 NSCLC and in the test on HCT-15 colon was greater than 100 µM throughout.
For the compound `Cc1nn(C(=O)c2ccc(Cl)cc2)c2c1C(c1ccc(O)cc1)SC(N)=N2` (centres undefined), the TGI in the test with KM12 colon, with SF-539 CNS, with T-47D breast, with UACC-257 melanoma, in the test with MALME-3M melanoma and in the test on HCT-116 colon was greater than 10 µM each time. For the same compound, the TGI with UACC-62 melanoma, in the test on SR leukemia, with HOP-92 NSCLC and with HCT-15 colon was greater than 10 µM each time.
With `Nc1ccccc1SC1CC(=O)N(c2ccc(Cl)c(Cl)c2)C1=O` (centres undefined), the GI50 in the test on KM12 colon is 16200 nM; in the test with SF-539 CNS it was 63.6 µM; in the test on T-47D breast, 12.6 µM; in the test with UACC-257 melanoma, 31.8 µM; in the test on MALME-3M melanoma, 15.6 µM; with HCT-116 colon it was 24.2 µM. Moreover, the GI50 in the test on UACC-62 melanoma was 14 µM; in the test with SR leukemia it was 22.4 µM; in the test with HOP-92 NSCLC it was 14900 nM; in the test on HCT-15 colon, 28.6 µM. Moreover, the TGI in the test on KM12 colon, in the test on SF-539 CNS, in the test on T-47D breast, in the test on UACC-257 melanoma, in the test with MALME-3M melanoma and in the test on HCT-116 colon was greater than 100 µM throughout. For the same compound, the TGI was greater than 100 µM in the test on UACC-62 melanoma, greater than 100 µM in the test with SR leukemia, 42.1 µM in the test with HOP-92 NSCLC and greater than 100 µM with HCT-15 colon.
